In PubChem BioAssay AID328 (DTP/NCI, 2004):
Where “and” joins values, the source holds several entries; their conditions need not be identical. Identical values can stand only once. Inconclusive results and toxic doses are left out. Residues, ends and D or L forms follow the SMILES beside them.

System: BDF1 mice, P388 leukemia ip, median survival T/C
Test: NCI In Vivo Anticancer Drug Screen. Data for tumor model P388 Leukemia (intraperitoneal) in B6D2F1 (BDF1) mice
Conditions: endpoint: median survival time, higher = longer survival
Procedure, shortened: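 Vehicle-dosed animals serve as the reference; survival of compound-dosed, tumour-implanted mice is divided by it.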

[1] = dose: 100.0 mg/kg/injection, schedule: Q01DX009 (ip), vehicle: Klucel (hydroxypropylcellulose) (HPC)
[2] = dose: 200.0 mg/kg/injection, schedule: Q01DX009 (ip), vehicle: Klucel (hydroxypropylcellulose) (HPC)
[3] = dose: 400.0 mg/kg/injection, schedule: Q01DX009 (ip), vehicle: Klucel (hydroxypropylcellulose) (HPC)
[4] = dose: 100.0 mg/kg/injection, schedule: Q01DX009 (ip), vehicle: saline with Tween-80
[5] = dose: 200.0 mg/kg/injection, schedule: Q01DX009 (ip), vehicle: saline with Tween-80
[6] = dose: 400.0 mg/kg/injection, schedule: Q01DX009 (ip), vehicle: saline with Tween-80
[7] = dose: 100.0 mg/kg/injection, schedule: Q04DX003 (ip), vehicle: Klucel (hydroxypropylcellulose) (HPC)
[8] = dose: 200.0 mg/kg/injection, schedule: Q04DX003 (ip), vehicle: Klucel (hydroxypropylcellulose) (HPC)
[9] = dose: 400.0 mg/kg/injection, schedule: Q04DX003 (ip), vehicle: Klucel (hydroxypropylcellulose) (HPC)
[10] = dose: 100.0 mg/kg/injection, schedule: Q04DX003 (ip), vehicle: saline with Tween-80
[11] = dose: 200.0 mg/kg/injection, schedule: Q04DX003 (ip), vehicle: saline with Tween-80
[12] = dose: 400.0 mg/kg/injection, schedule: Q04DX003 (ip), vehicle: saline with Tween-80
[13] = dose: 50.0 mg/kg/injection, schedule: Q01DX009 (ip), vehicle: saline with Tween-80

COc1cc(Br)cc(C(=O)O)c1OC
T/C (dose: 50.0 mg/kg/injection, schedule: Q01DX009 (ip), vehicle: distilled water + Tween-80): 96 % of control | T/C (dose: 100.0 mg/kg/injection, schedule: Q01DX009 (ip), vehicle: distilled water + Tween-80): 88 % of control

CC(=O)NC(Cc1ccccc1)C(=O)NC(CCCN=C(N)N)C(=O)O (stereo not drawn) (Ac-Phe-Arg-OH; configuration not given here)
T/C (dose: 50.0 mg/kg/injection, schedule: Q01DX005 (ip), vehicle: saline): 108 % of control | T/C (dose: 100.0 mg/kg/injection, schedule: Q01DX005 (ip), vehicle: saline): 115 % of control | T/C (dose: 200.0 mg/kg/injection, schedule: Q01DX005 (ip), vehicle: saline): 105 % of control

CN(CCC(=O)c1cccc2ccccc12)Cc1ccccc1
T/C [1]: 115 % of control | T/C [2]: 100 % of control | T/C [3]: 105 % of control

COc1ccc(C(=NO)c2ccc(OC)cc2)cc1
T/C [1]: 109 % of control | T/C (dose: 100.0 mg/kg/injection, schedule: Q01DX009 (ip), vehicle: saline): 100 % of control and 109 % of control | T/C [2]: 118 % of control | T/C (dose: 200.0 mg/kg/injection, schedule: Q01DX009 (ip), vehicle: saline): 105 % of control and 109 % of control | T/C [3]: 118 % of control | T/C (dose: 400.0 mg/kg/injection, schedule: Q01DX009 (ip), vehicle: saline): 120 % of control

O=C1CCCCc2ccc(O)cc21
T/C [4]: 99 % of control | T/C [5]: 89 % of control | T/C [6]: 93 % of control

Cc1[nH]c(N)nc(=S)c1CCC(=O)O
T/C [7]: 100 % of control | T/C [8]: 104 % of control | T/C [9]: 95 % of control

Nc1nc(N)c2cc(N3CCCC3c3ccc(Cl)cc3)ccc2n1 (centres undefined)
T/C (dose: 3.12 mg/kg/injection, schedule: Q01DX009 (ip), vehicle: saline): 109 % of control | T/C (dose: 12.5 mg/kg/injection, schedule: Q01DX009 (ip), vehicle: saline): 89 % of control | T/C (dose: 12.5 mg/kg/injection, schedule: Q04DX003 (ip), vehicle: water): 92 % of control | T/C (dose: 25.0 mg/kg/injection, schedule: Q04DX003 (ip), vehicle: water): 111 % of control | T/C (dose: 50.0 mg/kg/injection, schedule: Q04DX003 (ip), vehicle: water): 115 % of control

CC(C)C1NC(=O)C2CCCN2C1=O (centres undefined)
T/C [4]: 100 % of control | T/C [10]: 109 % of control | T/C [5]: 100 % of control | T/C [11]: 113 % of control | T/C [6]: 123 % of control | T/C [12]: 118 % of control

OC12CCCC3CCCC(CCC1)C32 (centres undefined)
T/C [7]: 100 % of control | T/C [8]: 100 % of control | T/C [9]: 100 % of control

CC[C@@]1(O)C(=O)OCc2c1cc1n(c2=O)Cc2cc3c(OC)cccc3nc2-1
T/C (dose: 0.5 mg/kg/injection, schedule: Q01DX009 (ip), vehicle: carboxymethylcellulose (CMC)): 182 % of control | T/C (dose: 1.0 mg/kg/injection, schedule: Q01DX009 (ip), vehicle: carboxymethylcellulose (CMC)): 195 % of control

COc1ccc(N=C(c2ccccc2)c2ccccc2)cc1
T/C [4]: 91 % of control | T/C [10]: 92 % of control | T/C [5]: 108 % of control | T/C [11]: 100 % of control | T/C [6]: 108 % of control | T/C [12]: 96 % of control

CC(=O)OCC1OC(N=[N+]=[N-])C(OC(C)=O)C(OC(C)=O)C1OC(C)=O (centres undefined)
T/C [13]: 93 % of control | T/C [4]: 108 % of control | T/C [5]: 99 % of control

O=NN(CCCl)C(=O)NCCCl
T/C (dose: 0.5 mg/kg/injection, schedule: Q01DX001 (ip), vehicle: saline): 111 % of control | T/C (dose: 1.0 mg/kg/injection, schedule: Q01DX001 (ip), vehicle: saline): 105 % of control | T/C (dose: 2.0 mg/kg/injection, schedule: Q01DX009 (ip), vehicle: other): 172 % of control and 180 % of control | T/C (dose: 3.13 mg/kg/injection, schedule: Q01DX010 (ip), vehicle: saline): 255 % of control and 260 % of control | T/C (dose: 3.2 mg/kg/injection, schedule: Q01DX009 (ip), vehicle: saline + alcohol): 195 % of control | T/C (dose: 4.0 mg/kg/injection, schedule: Q01DX009 (ip), vehicle: other): 227 % of control and 276 % of control | T/C (dose: 4.8 mg/kg/injection, schedule: Q01DX009 (ip), vehicle: saline + alcohol): 275 % of control and 276 % of control | T/C (dose: 5.0 mg/kg/injection, schedule: Q01DX001 (ip), vehicle: saline): 164 % of control | T/C (dose: 6.25 mg/kg/injection, schedule: Q01DX010 (ip), vehicle: saline): 300 % of control | T/C (dose: 6.4 mg/kg/injection, schedule: Q01DX009 (ip), vehicle: saline + alcohol): 319 % of control and 532 % of control | T/C (dose: 7.5 mg/kg/injection, schedule: Q01DX001 (ip), vehicle: saline + alcohol): 157 % of control and 200 % of control | T/C (dose: 7.5 mg/kg/injection, schedule: Q01DX001 (ip), vehicle: saline): 211 % of control | T/C (dose: 8.0 mg/kg/injection, schedule: Q01DX009 (ip), vehicle: other): 270 % of control and 514 % of control | T/C (dose: 10.0 mg/kg/injection, schedule: Q01DX001 (ip), vehicle: saline): 212 % of control | T/C (dose: 12.0 mg/kg/injection, schedule: Q01DX001 (ip), vehicle: Klucel (hydroxypropylcellulose) (HPC)): 119 % of control | T/C (dose: 15.0 mg/kg/injection, schedule: Q01DX001 (ip), vehicle: saline + alcohol): 253 % of control and 176 % of control | T/C (dose: 15.0 mg/kg/injection, schedule: Q01DX001 (ip), vehicle: saline): 159 % of control | T/C (dose: 16.0 mg/kg/injection, schedule: Q01DX001 (ip), vehicle: saline + alcohol): 196 % of control | T/C (dose: 16.0 mg/kg/injection, schedule: Q01DX009 (ip), vehicle: other): 100 % of control | T/C (dose: 20.0 mg/kg/injection, schedule: Q01DX001 (ip), vehicle: saline): 238 % of control and 154 % of control | T/C (dose: 20.0 mg/kg/injection, schedule: Q#XHX024 (ip), vehicle: saline): 229 % of control | T/C (dose: 21.6 mg/kg/injection, schedule: Q01DX001 (ip), vehicle: other): 175 % of control | T/C (dose: 21.6 mg/kg/injection, schedule: Q01DX001 (ip), vehicle: saline + alcohol): 152 % of control | T/C (dose: 30.0 mg/kg/injection, schedule: Q01DX001 (ip), vehicle: saline): 247 % of control and 564 % of control and 159 % of control | T/C (dose: 30.0 mg/kg/injection, schedule: Q#XHX024 (ip), vehicle: saline): 546 % of control | T/C (dose: 32.0 mg/kg/injection, schedule: Q01DX001 (ip), vehicle: saline + alcohol): 225 % of control | T/C (dose: 36.0 mg/kg/injection, schedule: Q01DX001 (ip), vehicle: other): 236 % of control | T/C (dose: 36.0 mg/kg/injection, schedule: Q01DX001 (ip), vehicle: saline + alcohol): 499 % of control | T/C (dose: 40.0 mg/kg/injection, schedule: Q01DX001 (ip), vehicle: saline): 266 % of control | T/C (dose: 60.0 mg/kg/injection, schedule: Q01DX001 (ip), vehicle: saline + alcohol): 88 % of control | T/C (dose: 64.0 mg/kg/injection, schedule: Q01DX001 (ip), vehicle: saline + alcohol): 281 % of control

CCCCCCOC(=O)/C=C(/C)OCCCCCC
T/C [13]: 100 % of control | T/C (dose: 87.5 mg/kg/injection, schedule: Q01DX009 (ip), vehicle: saline with Tween-80): 113 % of control | T/C [4]: 105 % of control | T/C (dose: 100.0 mg/kg/injection, schedule: Q04DX003 (ip), vehicle: saline): 108 % of control | T/C (dose: 175.0 mg/kg/injection, schedule: Q01DX009 (ip), vehicle: saline with Tween-80): 100 % of control | T/C (dose: 200.0 mg/kg/injection, schedule: Q04DX003 (ip), vehicle: saline): 104 % of control | T/C (dose: 265.0 mg/kg/injection, schedule: Q01DX009 (ip), vehicle: saline with Tween-80): 113 % of control | T/C [6]: 118 % of control | T/C (dose: 400.0 mg/kg/injection, schedule: Q04DX003 (ip), vehicle: saline): 108 % of control

CCOC(=O)CCSc1ccccc1
T/C (dose: 25.0 mg/kg/injection, schedule: Q04DX003 (ip), vehicle: saline with Tween-80): 98 % of control | T/C (dose: 50.0 mg/kg/injection, schedule: Q04DX003 (ip), vehicle: saline with Tween-80): 95 % of control

C1CNCOC1
T/C (dose: 25.0 mg/kg/injection, schedule: Q04DX003 (ip), vehicle: saline): 105 % of control | T/C (dose: 50.0 mg/kg/injection, schedule: Q04DX003 (ip), vehicle: saline): 119 % of control
